# In US12716055B2, “Treatment of disc degenerative disease and stimulation of proteoglycan synthesis by fibroblast conditioned media and formulations thereof” (FIBROBIOLOGICS, INC., priority 2019, dated 2026):
# Test system: Neonatal foreskin fibroblasts
# Experiment: EGF production in foreskin fibroblasts cultured with naltrexone and TLR agonists (ELISA)
# Format: cell-based
# Details: treatment of fibroblasts with opioid receptor antagonist, 12 hours of culture, 50% confluent
# Excerpt: The present example characterizes the use of naltrexone and a TLR agonist to stimulate EGF production in foreskin fibroblasts as an example of a type of fibroblasts.
# Neonatal foreskin fibroblasts were obtained from ATCC and cultured in typical DMEM culture media containing 10% fetal calf serum and antibiotics. After 3 days of culture, fibroblasts where plated in 12 well plates and cultured at 50% confluent conditions. Addition of naltrexone (Sigma Aldrich®) and the indicated TLR agonists was performed for 12 hours of culture. Pam3CSK4 was added at a total concentration of 1 ug/ml. LPS was added at 0.5 ug/ml. CpG was added at 0.2 ug/ml. Concentration of EGF was assessed using ELISA (R&D Systems).
smiles,measurement,value
O=C1CC[C@@]2(O)[C@H]3Cc4ccc(O)c5c4[C@@]2(CCN3CC2CC2)[C@H]1O5 [naltrexone],production of growth factors including EGF by fibroblasts,induce production of various growth factors including EGF
